# Assay results taken from publication PMC8373216, “Development and Preclinical Evaluation of New Inhaled Lipoglycopeptides for the Treatment of Persistent Pulmonary Methicillin-Resistant Staphylococcus aureus Infections” (Antimicrobial Agents and Chemotherapy, 2021).
# Like-named read-outs stand apart in the source and are kept apart here.
# How the values were obtained:
# THP-1 cells = assay: In vitro cellular accumulation; type: cell-based; conditions: 24 h, 10 to 75 μg/ml
# Experimental: THP-1 cells (TIB-202; ATCC, Manassas, VA; 1 × 10^6 cells/well) were differentiated into macrophages by incubating in 10% fetal bovine serum (FBS; HyClone, Marlborough, MA) supplemented RPMI 1640 medium (HyClone) with 50 ng/ml of phorbol 12-myristate 13-acetate (PMA; Sigma-Aldrich, St. Louis, MO) for 24 h. After a 24 h incubation in fresh medium, cells were treated with RV lipoglycopeptides or comparator drugs at target concentrations in the range of 10 to 75 μg/ml and incubated at 37°C for 24 h. For sample collection, mixtures of cells and medium were transferred into a 1.5-ml microcentrifuge tube followed by centrifugation at 330 × g for 8 min at 4°C. The supernatant was collected to measure the extracellular portion. After washing three times using 1 ml of tris-buffered saline (TBS, 1× solution, pH 7.4, Fisher BioReagents, Waltham, MA), the cell pellet was resuspended in TBS to measure the cellular drug concentration. To confirm mass balance, drug concentrations were also measured from the supernatant and an organic solvent mixture (30% acetonitrile in water) that was used to extract residual drug from the empty wells after the cell mixture was removed. […] Cellular accumulation was expressed as μg of drug per the mass of cell protein measured using a Pierce BCA protein assay kit (Thermo Scientific, Waltham, MA).
# [1] = type: physicochemical; conditions: pH 8
# Experimental: (§1) 40 to the primary metabolite.
# (§2) 41 percent degradation is defined as follows:
# (§3) [LLLLPPLL ] + [MMPPPPDDMM DDMMDDPPPP ]
# (§4) 45 Enzymes studied include :
# (§5) 108 Table S1: Enzyme hydrolysis of RV62 and RV94 was measured as a function of time in PBS (pH 8) at 37
# (§6) 109 °C. Control samples in the absence of enzyme were included as […]. Samples were analyzed
# (§7) 110 by HPLC detecting the parent RV derivative (RV62 or RV94).
# (§8) RV Percent RV derivative remaining in HPLC chromatograph, % […]
# [2] = molecular target: T1, Protease from Bacillus Lichenformis (Bacillus licheniformis, UniProt P00780); assay: Enzyme hydrolysis; type: in vitro ADME; conditions: Bacillus Lichenformis protease 5 U/mL
# T1 construct: purchased Sigma Aldrich P5380; host or cells: Bacillus licheniformis
# Experimental: as §1, §2, §3, §4, §5, §6, §7, §8
# Protease from Papain = molecular target: T2, Protease from Papain (Carica papaya, UniProt P00784); assay: Enzyme hydrolysis; type: in vitro ADME; conditions: Papain 5 U/mL
# T2 construct: purchased Sigma Aldrich P4762; host or cells: papaya latex
# Experimental: as §1, §2, §3, §4, §5, §6, §7, §8
# T2 sequence (P00784 134-345): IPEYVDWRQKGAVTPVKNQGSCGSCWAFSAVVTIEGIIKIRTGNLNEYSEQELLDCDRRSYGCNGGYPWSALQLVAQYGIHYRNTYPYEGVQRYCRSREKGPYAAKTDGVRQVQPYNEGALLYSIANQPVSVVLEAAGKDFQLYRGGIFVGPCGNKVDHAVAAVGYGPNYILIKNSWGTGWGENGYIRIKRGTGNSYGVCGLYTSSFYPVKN
# T1 sequence (P00780 106-379): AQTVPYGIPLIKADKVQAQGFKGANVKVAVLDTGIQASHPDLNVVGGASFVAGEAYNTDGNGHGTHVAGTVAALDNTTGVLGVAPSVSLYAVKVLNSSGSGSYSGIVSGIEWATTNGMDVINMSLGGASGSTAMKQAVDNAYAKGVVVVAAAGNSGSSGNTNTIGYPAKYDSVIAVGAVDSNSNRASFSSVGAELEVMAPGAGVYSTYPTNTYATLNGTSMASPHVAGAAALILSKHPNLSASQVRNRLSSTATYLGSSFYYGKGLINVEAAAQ
smiles,measurement,setting,value
CCCCCCCCCCNC(=O)CNC1(C)CC(OC2C(Oc3c4cc5cc3Oc3ccc(cc3Cl)C(O)C3NC(=O)C(NC(=O)C5NC(=O)C(CC(N)=O)NC(=O)C(NC(=O)C(CC(C)C)NC)C(O)c5ccc(c(Cl)c5)O4)c4ccc(O)c(c4)-c4c(O)cc(O)cc4C(C(=O)O)NC3=O)OC(CO)C(O)C2O)OC(C)C1O (centres unmarked) [RV94],"Cellular accumulation, fold improvement over telavancin",THP-1 cells,4 fold
same,"Cellular accumulation, fold improvement over vancomycin",THP-1 cells,2 fold
same,Percent RV derivative remaining in HPLC chromatograph,[1]; 0 h,99.74%
same,Percent RV derivative remaining in HPLC chromatograph,[1]; 1 h,99.54%
same,Percent RV derivative remaining in HPLC chromatograph,[1]; 24 h,98.89%
same,Percent RV derivative remaining in HPLC chromatograph,[2]; 1 h,99.47%
same,Percent RV derivative remaining in HPLC chromatograph,[2]; 24 h,99.43%
same,Percent RV derivative remaining in HPLC chromatograph,"[2]; PBS pH 8, 37 °C, 0 h",99.76%
same,Percent RV derivative remaining in HPLC chromatograph,Protease from Papain; 1 h,99.39%
same,Percent RV derivative remaining in HPLC chromatograph,Protease from Papain; 24 h,98.31%
same,Percent RV derivative remaining in HPLC chromatograph,"Protease from Papain; PBS pH 8, 37 °C, 0 h",99.46%
